One assay has as its system ß-Adrenozeptor. Put plainly: Attenuation of the positive chronotropic effect of isoprenaline in the conscious dog. It is filed as in vivo, Hund. The following applies: intensity relative to the known ß-blocker Atenolol at the same dose. Here is the method: (§1) Sobewirkt z.B. das Hydrochlorid von 2,2-Dimethyl-4- (2' hydroxy-3'-tert.butylaminopropoxy)-1,3-benzodioxol am wachen Hund eine 40-fach intensivere Abschwächung der positiv chronotropen Isoprenalinwirkung als der bekannte B-Blocker Atenolol in gleicher Dosierung und ergibt im Writhing-Test nach Huntingdon mit einer ED 50 von nur 8 mg/kg (Maus, oral) eine gute analgetische Wirkung. Vergleicht man diese im Writhina-Test mit der von bekannten Analgetika, dann zeigt sich die Überlegenheit des neuen Wirkstoffes: […]

In a further assay the test system is Maus. Put plainly: Writhing test according to Huntingdon (analgesia). It is filed as in vivo. The note with it: Mus musculus, oral. Here is the method:
as §1
A general note: In writhing tests, fewer writhes than in controls are read as antinociception.

Where a name gives a salt, the structure may show the parent alone.

`CC(C)(C)NCC(O)COc1cccc2c1OC(C)(C)O2` (centres unmarked) [2,2-Dimethyl-4-(2'-hydroxy-3'-tert.butylamino--propoxy)-1,3-benzodioxol]: the “Abschwächung der positiv chronotropen Isoprenalinwirkung” value in the assay on ß-Adrenozeptor is 40 -fach. Besides, the ED50 in the assay on Maus stood at 8 mg/kg.

On to `Cc1c(N(C)CS(=O)(=O)O)c(=O)n(-c2ccccc2)n1C` [Metamizol-Natrium], for which, in the assay with Maus, it took a dose of 10.6 mg/kg to reach the 50% effect level (ED50).

Compound `NC(=O)c1ccccc1OCC(=O)O` [Natriumsalz der Salicylamid-O-essigsäure] had an ED50 in the assay on Maus of 11.5 mg/kg.

For `CCOC(=O)C1(c2ccccc2)CCN(C)CC1` [Pethidin-Hydrochlorid], the ED50 with Maus worked out at 13.3 mg/kg.

Usually ED50 stands for the dose at which the effect has come halfway, by size or by number of responders.

The record behind these values is patent EP0095454A2, “Nuclens-substituted pyrogallol derivatives” (Gerot-Pharmazeutika Gesellschaft m.b.H., priority 1982, dated 1983).
